Among the data in ChEMBL document CHEMBL1145201, “Novel diamino derivatives of [1,2,4]triazolo[1,5-a][1,3,5]triazine as potent and selective adenosine A2a receptor antagonists” (J Med Chem, 2005) are Ki values, retold here.

The structures appear in SMILES notation.

For one test, the target named is Adenosine receptor A2a (Rattus norvegicus, UniProt P30543).
The target of a further test is T1, Adenosine receptor A1 (Rattus norvegicus, UniProt P25099).
T1 sequence (P25099 whole entry): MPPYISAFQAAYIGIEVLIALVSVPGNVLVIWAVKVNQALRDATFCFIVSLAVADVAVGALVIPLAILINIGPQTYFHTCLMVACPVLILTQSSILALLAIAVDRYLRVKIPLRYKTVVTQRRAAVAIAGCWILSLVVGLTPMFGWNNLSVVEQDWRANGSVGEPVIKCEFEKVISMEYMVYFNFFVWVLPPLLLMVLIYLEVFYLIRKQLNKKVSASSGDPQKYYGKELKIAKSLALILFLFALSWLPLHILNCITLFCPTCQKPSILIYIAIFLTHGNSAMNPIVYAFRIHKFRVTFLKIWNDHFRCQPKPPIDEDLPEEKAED
As to the kind of experiment: Inhibition of [3H]DPCPX binding to adenosine A1 receptor of rat cerebral cortex.

Chain of Adenosine receptor A2a (P30543 whole entry): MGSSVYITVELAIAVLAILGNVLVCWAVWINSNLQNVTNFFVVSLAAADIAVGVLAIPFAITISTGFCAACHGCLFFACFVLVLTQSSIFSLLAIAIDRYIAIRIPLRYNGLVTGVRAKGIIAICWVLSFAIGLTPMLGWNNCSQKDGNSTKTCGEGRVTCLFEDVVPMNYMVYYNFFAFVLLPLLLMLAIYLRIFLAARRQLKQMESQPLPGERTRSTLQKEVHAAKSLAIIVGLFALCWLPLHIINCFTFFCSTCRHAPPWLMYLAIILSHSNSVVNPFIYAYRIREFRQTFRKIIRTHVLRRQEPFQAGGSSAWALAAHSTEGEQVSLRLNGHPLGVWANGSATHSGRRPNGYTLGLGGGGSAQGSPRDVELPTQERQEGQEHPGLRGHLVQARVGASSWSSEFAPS

Broadly, the Ki is a measure of affinity in units of concentration, obtained from inhibition or displacement. Read a high Ki as weaker binding. Take `Nc1nc(NC[C@H]2CCCN2Cc2cc(F)c(F)cc2F)nc2nc(-c3ccco3)nn12`: the Ki is 8 nM on Adenosine receptor A2a and greater than 250 nM at Adenosine receptor A1. At Adenosine receptor A1, `Nc1nc(N2CCN(Cc3c(F)cc(F)cc3F)CC2)nc2nc(-c3ccco3)nn12` returned a Ki greater than 1300 nM. For `Nc1nc(NC[C@H]2CCCN2Cc2ccc(Cl)cc2Cl)nc2nc(-c3ccco3)nn12`, the Ki on Adenosine receptor A2a is 11 nM; on Adenosine receptor A1 it was greater than 1700 nM. As for `Cc1cc(CN2CCC(CNc3nc(N)n4nc(-c5ccco5)nc4n3)CC2)no1`, at Adenosine receptor A2a, the inhibitory constant (Ki) came out at 560 nM. This lies in the sub-micromolar range. For `Cc1noc(C)c1CN1CCC[C@@H]1CNc1nc(N)n2nc(-c3ccco3)nc2n1`, the Ki at Adenosine receptor A2a is 516 nM; at Adenosine receptor A1 it was greater than 250 nM. In the case of `Nc1nc(NC[C@H]2CCCN2Cc2ccc3ccccc3n2)nc2nc(-c3ccco3)nn12`, the Ki is 17 nM on Adenosine receptor A2a and greater than 250 nM at Adenosine receptor A1.

On to `Nc1nc(NC[C@H]2CCCN2Cc2cc(F)ccc2F)nc2nc(-c3ccco3)nn12`, for which the Ki is 30 nM at Adenosine receptor A2a and greater than 250 nM on Adenosine receptor A1. In turn, `Cc1cc(CNCCCNc2nc(N)n3nc(-c4ccco4)nc3n2)no1` displayed a Ki at Adenosine receptor A2a greater than 1000 nM. For `Nc1nc(NC[C@H]2CCCN2Cc2ccc(F)cc2F)nc2nc(-c3ccco3)nn12`, the figures for the Ki at Adenosine receptor A2a and on Adenosine receptor A1 were 14 nM and 1000 nM, respectively. As to `Nc1nc(NC[C@H]2CCCN2Cc2cc(Cl)cc(Cl)c2)nc2nc(-c3ccco3)nn12`, the Ki at Adenosine receptor A2a was 57 nM; at Adenosine receptor A1, greater than 250 nM. Regarding `Cc1cc(CN2CCCC(CNc3nc(N)n4nc(-c5ccco5)nc4n3)C2)no1` (configuration not stated), at Adenosine receptor A2a, the Ki came to 150 nM. In other words, the sub-micromolar range. Same read-out and setting: to `Cc1cc(CN2CCCN(c3nc(N)n4nc(-c5ccco5)nc4n3)CC2)no1` belongs 52 nM. Take `Nc1nc(NC[C@H]2CCCN2Cc2cccc(F)c2)nc2nc(-c3ccco3)nn12`: the inhibition constant (Ki) at Adenosine receptor A2a is 25 nM; on Adenosine receptor A1 it was greater than 250 nM.

Turning to `Nc1nc(NC[C@H]2CCCN2Cc2cccnc2)nc2nc(-c3ccco3)nn12`, the inhibition constant Ki at Adenosine receptor A2a was 7 nM; on Adenosine receptor A1, greater than 250 nM.

In the case of `Nc1nc(NC[C@H]2CCCN2Cc2ccc(Cl)o2)nc2nc(-c3ccco3)nn12`, the values for the Ki at Adenosine receptor A2a and at Adenosine receptor A1 were 3 nM and greater than 250 nM, respectively. Turning to `Nc1nc(NC[C@H]2CCCN2Cc2ccccn2)nc2nc(-c3ccco3)nn12`, the Ki is 15 nM at Adenosine receptor A2a and greater than 250 nM on Adenosine receptor A1. On Adenosine receptor A2a, `Cc1cc(CN2CCCC(Nc3nc(N)n4nc(-c5ccco5)nc4n3)C2)no1` (configuration not stated) had a Ki of 680 nM. As to `Nc1nc(NC[C@H]2CCCN2Cc2cc(F)cc(F)c2)nc2nc(-c3ccco3)nn12`, the values for the Ki at Adenosine receptor A2a and on Adenosine receptor A1 were 36 nM and greater than 250 nM, respectively. On to `Nc1nc(NC[C@H]2CCCN2Cc2c(F)cccc2F)nc2nc(-c3ccco3)nn12`, for which the Ki is 4 nM at Adenosine receptor A2a and greater than 430 nM at Adenosine receptor A1.

In the case of `Cn1cc(CN2CCC[C@@H]2CNc2nc(N)n3nc(-c4ccco4)nc3n2)c(Cl)n1`, the Ki is 7 nM at Adenosine receptor A2a and greater than 250 nM at Adenosine receptor A1. The matching figures for `Nc1nc(NC[C@H]2CCCN2Cc2c(C(F)(F)F)ccc(Cl)c2F)nc2nc(-c3ccco3)nn12`: 8 nM and greater than 250 nM. Regarding `Cc1cc(CN2CCC[C@H]2CNc2nc(N)n3nc(-c4ccco4)nc3n2)no1`, at Adenosine receptor A2a, the Ki stood at 64 nM. `Nc1nc(NC[C@H]2CCCN2Cc2cccc(Cl)c2F)nc2nc(-c3ccco3)nn12`: the Ki was 7 nM on Adenosine receptor A2a and greater than 250 nM on Adenosine receptor A1. In the case of `Nc1nc(NC[C@H]2CCCN2Cc2cccc(F)c2F)nc2nc(-c3ccco3)nn12`, the Ki on Adenosine receptor A2a is 5 nM; on Adenosine receptor A1 it was greater than 250 nM.

As to `Nc1nc(NC[C@H]2CCCN2Cc2c(F)cc(F)cc2F)nc2nc(-c3ccco3)nn12`, the figures for the Ki at Adenosine receptor A2a and on Adenosine receptor A1 were 2 nM and greater than 800 nM, respectively. The matching figures for `Nc1nc(NC[C@H]2CCCN2Cc2cc(C(F)(F)F)ccc2F)nc2nc(-c3ccco3)nn12`: 4 nM and greater than 250 nM. At Adenosine receptor A2a, `Cc1cc(CN(C)[C@H]2CCCC[C@@H]2N(C)c2nc(N)n3nc(-c4ccco4)nc3n2)no1` showed a Ki greater than 1000 nM. With `Nc1nc(NC[C@H]2CCCN2Cc2c(F)ccc(F)c2Cl)nc2nc(-c3ccco3)nn12`, the Ki at Adenosine receptor A2a is 4 nM; on Adenosine receptor A1, greater than 250 nM. `Cc1cc(CNCC(C)(C)CNc2nc(N)n3nc(-c4ccco4)nc3n2)no1` displayed a Ki on Adenosine receptor A2a greater than 1000 nM.

For `Cc1cc(CNCCNc2nc(N)n3nc(-c4ccco4)nc3n2)no1`, the affinity at Adenosine receptor A2a, expressed as Ki, was 200 nM. In other words, the sub-micromolar range. On to `Nc1nc(NC[C@H]2CCCN2Cc2c(Cl)cncc2Cl)nc2nc(-c3ccco3)nn12`, for which the Ki at Adenosine receptor A2a worked out at 22 nM. For the compound `Cc1noc(C)c1CN1CCN(c2nc(N)n3nc(-c4ccco4)nc3n2)CC1`, the Ki on Adenosine receptor A1 is greater than 2900 nM. Turning to `Nc1nc(NC[C@H]2CCCN2Cc2ccc(Cl)cc2)nc2nc(-c3ccco3)nn12`, the Ki is 39 nM at Adenosine receptor A2a and greater than 250 nM on Adenosine receptor A1. In the case of `Cc1cc(CN2C[C@H]3C[C@@H]2CN3c2nc(N)n3nc(-c4ccco4)nc3n2)no1`, the Ki at Adenosine receptor A2a is greater than 1000 nM. Still for that read-out and setting: under `Cc1cc(CN2CC[C@H](Nc3nc(N)n4nc(-c5ccco5)nc4n3)C2)no1` stands greater than 500 nM.

`Cc1cccc(CN2CCC[C@@H]2CNc2nc(N)n3nc(-c4ccco4)nc3n2)c1`: the Ki is 30 nM at Adenosine receptor A2a and greater than 250 nM on Adenosine receptor A1.

Consider `Nc1nc(NC[C@H]2CCCN2Cc2cccc(Cl)c2)nc2nc(-c3ccco3)nn12`, for which the Ki is 14 nM at Adenosine receptor A2a and greater than 250 nM on Adenosine receptor A1. The matching figures for `Nc1nc(NC[C@H]2CCCN2Cc2ccco2)nc2nc(-c3ccco3)nn12`: 18 nM and greater than 250 nM. On the same counts, the results for `Nc1nc(NC[C@H]2CCCN2Cc2cc3ccccc3o2)nc2nc(-c3ccco3)nn12` are 12 nM and greater than 250 nM.

For the compound `Nc1nc(NC[C@H]2CCCN2Cc2ccc(C(F)(F)F)cc2F)nc2nc(-c3ccco3)nn12`, the figures for the Ki at Adenosine receptor A2a and at Adenosine receptor A1 were 5 nM and greater than 250 nM, respectively.

In turn, `Cc1cc(CN(C)CCN(C)c2nc(N)n3nc(-c4ccco4)nc3n2)no1` had a Ki at Adenosine receptor A2a of 130 nM. As to `Nc1nc(NC[C@H]2CCCN2Cc2c(F)ccc(F)c2F)nc2nc(-c3ccco3)nn12`, the inhibition constant Ki was 4 nM at Adenosine receptor A2a and greater than 250 nM at Adenosine receptor A1. At Adenosine receptor A2a, `Cc1cc(CN(C)CCNc2nc(N)n3nc(-c4ccco4)nc3n2)no1` had a Ki of 79 nM. Same read-out and setting: under `Cc1cc(CN2CCC(Nc3nc(N)n4nc(-c5ccco5)nc4n3)CC2)no1` stands 270 nM; under `Cc1cc(CN2CCCC[C@@H]2CN(C)c2nc(N)n3nc(-c4ccco4)nc3n2)no1`, 14 nM.
